Laboratory results published in PMC6345774, “Kinetic and thermodynamic effects of phosphorylation on p53 binding to MDM2” (Scientific Reports, 2019).

B1: Ac-EeFdDLWKLLPEN-NH2 (P53-E18-D20) (peptide)
peptide: Ac-EEFDDLWKLLPEN-NH2
notes: also called double phosphomimetic mutant

Columns and labels:
[1] = target: T1, human MDM2 (residues 2–125) (Homo sapiens, UniProt Q00987); experiment: Stopped-flow fluorescence kinetics of p53-peptide binding to MDM2; details: stopped-flow Trp fluorescence, 15 °C, 50 mM Tris-HCl pH 8.0, 250 mM NaCl, 0.5 mM TCEP, peptide 0.125 μM, ± fitting error; for kon: MDM2 1–3 μM, pseudo-first order, slope, read-out: kon 10^6; for koff: y-axis intercept of pseudo-first-order plot
T1 construct: human MDM2 (residues 2–125); made in house; host or cells: E. coli BL21 (DE3)
Experimental: (§1) Expression and purification of human MDM2 (residues 2–125) was carried out as described[23] in BL21 (DE3) cells. […] Protein concentration was determined from the absorbance of its seven Tyr residues.
The kinetics of the MDM2/p53-peptide interaction was measured at 15 °C using an Applied Photophysics stopped-flow fluorimeter in the same buffer as that used in the equilibrium fluorescence experiments. The experimental procedure has been described previously. Association kinetics was measured under pseudo-first order conditions, by keeping the MDM2 concentration in excess of that of the peptide. […] Excitation wavelength was 280 nm with a cut-off filter of 315 nm on the emission side. The slit widths were 10 nm for excitation and emission.
At each MDM2 concentration a minimum of six traces were acquired; and the fitting in all cases for all peptides was carried out with the averaging of at least four traces. The averaged trace was always fitted to a single exponential function, which yielded, kobs. Fitting to a single exponential curve was carried out by using Kaleidagraph (Synergy Software); reported errors in kobs are from the exponential fitting. The dissociation (koff) and association (kon) rate constants were obtained from the straight line: kobs=kon×[MDM2]+koff.
Errors in both rates were from the linear fitting; the errors were always larger for koff due to the extrapolation to the y-axis intercept.

[2] = target: T1, human MDM2 (residues 2–125); experiment: Equilibrium fluorescence titration of p53-peptides and MDM2; format: binding; details: fluorescence at 315 nm, excitation 280 nm; MDM2 4 μM, peptide 0–10 μM; 15 °C, pH 8.0 Tris-HCl, 250 mM NaCl, 0.5 mM TCEP; overnight equilibration; titration repeated twice; read-out: Kd from fluorescence titrations
Experimental: as §1

[3] = Far-UV CD of isolated peptides in aqueous solution (helicity); format: physicochemical; details: 5 °C, 50 mM phosphate pH 6.8; for molar ellipticity at 222 nm, [Θ]222: far-UV CD; for % Helix in water ([Θ]222): from molar ellipticity at 222 nm assuming 100% helix = −31500 deg cm^2 dmol^−1
Experimental: Spectra were acquired on a Jasco J815 spectropolarimeter (Jasco, Japan) interfaced with a Peltier unit. The instrument was periodically calibrated with (+) 10-camphorsulphonic acid. Far-UV measurements (in aqueous or TFE solutions) were performed in 0.1-cm-pathlength quartz cells (Hellma), with a response time of 2 s, a band width of 1 nm, data were collected every 0.2 nm, and a scan velocity of 50 nm/min (or 20 nm/min). […] In all peptides, two concentrations (10 μM and 70 μM) in aqueous solutions (50 mM sodium phosphate buffer, pH 6.8 […]) were used to determine whether either the shapes or the intensities of the spectra were concentration-dependent. […] In all cases (aqueous solution or TFE titrations), the corresponding blank solutions (containing only buffer, or buffer and the corresponding amount of TFE) were subtracted from the spectra.
(§2) For the TFE titrations, a peptide concentration of 40 μM was used. The samples were prepared the day before and left overnight at 5 °C to reach equilibrium. The experiments in aqueous solution were acquired at 5 °C, in 50 mM sodium phosphate buffer, pH 6.8. Raw ellipticity was converted to molar ellipiticity, [Θ], from which the percentage of helical populations was determined. Co-solvent concentrations were indicated in percentage of volume. […] Fitting of the titration curves, obtained by observation of the molar ellipticity at 222 nm as the TFE concentration was increased, was carried out with Kaleidagraph (Synergy software).

[4] = TFE titrations monitored by CD (helical population); format: physicochemical; details: 5 °C, 50 mM phosphate pH 6.8, peptide 40 μM; for [TFE]1/2 (midpoint of TFE titration) / m (m-value of TFE titration): CD at 222 nm, two-state fit, ± fitting error; for % Helix in water (from ΔG in TFE titrations): from ΔG = [TFE]1/2 × m, for 1% values the error was 10%
Experimental: Unlike the above programs, which make assumptions about how the ellipticity signal relates to secondary structure content, a TFE titration allows the determination of helical content derived from the free-energy change for the equilibrium between folded (in TFE) and unfolded peptide, without any such assumptions.
as §2

[5] = target: T1, human MDM2 (residues 2–125); experiment: Isothermal titration calorimetry of p53-peptide binding to MDM2; details: ITC, 15 °C, 50 mM Tris-HCl pH 8.0, 250 mM NaCl, 0.5 mM TCEP; for ΔH of binding: repeated twice
Experimental: Protein concentration was determined from the absorbance of its seven Tyr residues.
Peptide binding to MDM2 was measured by using an Auto-iTC200 (Malvern Instruments, Malvern UK), as described[24],[37]. Data acquisition was carried out with a reference power of 10 µcal/s, initial delay of 60 s, spacing between injections of 150 s. In a typical ITC experiment, the p53 peptide was loaded into a 40 μl syringe and the protein was placed into the sample cell. The sequence of injections consisted of one 0.5 μl injection followed by 19 injections of 2 μl each. Control experiments loading peptide into buffer solution were also carried out for each peptide. Experiments were performed with freshly prepared protein solutions, at 15 °C in the same buffer used in fluorescence experiments. ITC experiments were performed at 15 °C rather than 25 °C to avoid aggregation of MDM2.
Each peak was integrated using NITPIC software. The areas of the peaks are related to the heat exchanged upon binding and/or dilution. This heat was corrected of the heat of dilution (i.e., the average heat of the injections after the equilibrium has reached the saturation). Titration with each peptide was repeated twice.

[6] = target: T2, human MDM2 (residues 2–125) (human, UniProt Q00987 2-125); experiment: ITC; p53 peptide in the syringe titrated into MDM2 in the cell; Auto-iTC200; 15 °C; 50 mM Tris-HCl pH 8.0, 250 mM NaCl, 0.5 mM TCEP; details: both partners purified
T2 construct: MDM2 (murine double minute 2), human, N-terminal domain, residues 2-125; no tag is named; also called N-terminal domain of MDM2

[7] = target: T2, human MDM2 (residues 2–125); experiment: other fluorescence titration; peptide 0–10 μM added to 4 μM MDM2; fluorescence at 315 nm after excitation at 280 nm; 15 °C; 50 mM Tris-HCl pH 8.0, 250 mM NaCl, 0.5 mM TCEP; samples left overnight at 5 °C; details: both partners purified
[8] = target: T2, human MDM2 (residues 2–125); experiment: stopped-flow fluorescence; pseudo-first order, peptide 0.125 μM final, MDM2 in excess (typically 1 μM to 3 μM); Trp23 fluorescence, excitation 280 nm, 315 nm cut-off; 15 °C; 50 mM Tris-HCl pH 8.0, 250 mM NaCl, 0.5 mM TCEP; Kd as koff/kon assuming a two-state reaction; details: both partners purified

T1 sequence (Q00987 2-125): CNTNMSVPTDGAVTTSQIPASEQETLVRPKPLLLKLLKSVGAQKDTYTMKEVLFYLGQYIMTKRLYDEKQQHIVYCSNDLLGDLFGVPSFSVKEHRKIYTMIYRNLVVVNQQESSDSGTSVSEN
T2 sequence (Q00987 2-125): as above

Molecule | kon [1] | koff [1] | Kd [2] | molar ellipticity at 222 nm, [Θ]222 [3] | % Helix in water ([Θ]222) [3] | [TFE]1/2 (midpoint of TFE titration) [4] | m (m-value of TFE titration) [4] | % Helix in water (from ΔG in TFE titrations) [4] | TΔS of binding [5] | ΔH of binding ([5]; peptide titrated into MDM2) | Kd ([5]; peptide titrated into MDM2, read-out: Log KA (converted)) | Kd [6] | Log KA [6] | dH [6] | Kd [7] | Kd [8]
CC(=O)N[C@@H](CCC(=O)O)C(=O)N[C@H](C(=O)N[C@@H](Cc1ccccc1)C(=O)N[C@@H](CCC(=O)O)C(=O)N[C@@H](CC(=O)O)C(=O)N[C@@H](CC(C)C)C(=O)N[C@@H](Cc1c[nH]c2ccccc12)C(=O)N[C@@H](CCCCN)C(=O)N[C@@H](CC(C)C)C(=O)N[C@@H](CC(C)C)C(=O)N1CCC[C@H]1C(=O)N[C@@H](CCC(=O)O)C(=O)N[C@@H](CC(N)=O)C(N)=O)[C@@H](C)O [P53-E20] | 9e+06 ± 2e+06 M⁻¹ s⁻¹ | 8 ± 5 s⁻¹ | 0.7 ± 0.1 µM | −2911 deg cm^2 dmol^−1 | 9.2% | 25 ± 2 % (vol:vol) | 231 ± 141 cal mol^−1(%)^−1 | 1% | – | – | – | – | – | – | – | –
Ac-EEFDDLWKLLPEN-NH2 [P53-E18-D20] | 4e+06 ± 2e+06 M⁻¹ s⁻¹ | 18 ± 6 s⁻¹ | – | −2100 deg cm^2 dmol^−1 | 6.6% | 15 ± 1 % (vol:vol) | 135 ± 18 cal mol^−1(%)^−1 | 3 ± 1% | -2.64 kcal/mol | -8.80 kcal/mol | – | – | – | – | – | –
Ac-EEFEDLWKLLPEN-NH2 [P53-E18-E20] | 2.7e+06 ± 900000 M⁻¹ s⁻¹ | 17 ± 2 s⁻¹ | – | −2757 deg cm^2 dmol^−1 | 8.7% | 24.5 ± 0.9 % (vol:vol) | 420 ± 390 cal mol^−1(%)^−1 | 1% | -2.16 kcal/mol | -9.12 kcal/mol | 5.01 µM | – | – | – | – | –
Ac-ETFDDLWKLLPEN-NH2 [Ac-ETFdDLWKLLPEN-NH2 (P53-D20)] | – | – | – | – | – | – | – | – | – | – | – | 5.7 µM | 5.24 | -10.2 kcal/mol | 1.5 ± 0.4 µM | –
B1 | – | – | – | – | – | – | – | – | – | – | – | 20.4 µM | 4.69 | -8.8 kcal/mol | 8.3 ± 4.9 µM | 4 ± 3 µM
Ac-EEFEDLWKLLPEN-NH2 [Ac-EeFeDLWKLLPEN-NH2 (P53-E18-E20)] | – | – | – | – | – | – | – | – | – | – | – | 5 µM | 5.3 | -9.12 kcal/mol | – | 6 ± 2 µM
Ac-ETFEDLWKLLPEN-NH2 [Ac-ETFeDLWKLLPEN-NH2 (P53-E20)] | – | – | – | – | – | – | – | – | – | – | – | – | – | – | – | 0.9 ± 0.6 µM
Ac-EEFSDLWKLLPEN-NH2 [Ac-EeFSDLWKLLPEN-NH2 (P53-E18)] | – | – | – | – | – | – | – | – | – | – | – | 7.1 µM | 5.15 | -7.02 kcal/mol | 2.3 ± 0.6 µM | 4.2 ± 0.9 µM
